Where two headings read alike, the source gives them in different places.
How the values were obtained:
[1] = molecular target: T1, Recombinant His-tagged NAMPT (Homo sapiens, UniProt P43490); assay: Biochemical inhibition assay: NAMPT enzymatic reaction, NMN quantified by mass spectrometry; settings: 33 nM NAMPT, 1 μM NAM, 100 μM PRPP, 30 minutes at room temperature, read-out: Biochem IC50
T1 construct: His; host or cells: E. coli
Outline: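 Reaction 30 min at room temperature with 1 μM NAM, 100 μM PRPP, 2.5 mM ATP (final), quenched with formic acid. NMN quantified by RapidFire electrospray MS, normalized to L-cystathionine; IC50 from percent inhibition versus DMSO.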

A2780 cells = assay: In-vitro cell proliferation assay (SRB, 72 hours); format: cell-based; settings: sulforhodamine B (SRB) assay
Outline: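 Viable cells measured by TCA fixation and SRB staining, absorbance 570 nm; % inhibition vs DMSO control after media-only background subtraction, interpolated between two bracketing concentrations.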

T1 sequence (P43490 whole entry): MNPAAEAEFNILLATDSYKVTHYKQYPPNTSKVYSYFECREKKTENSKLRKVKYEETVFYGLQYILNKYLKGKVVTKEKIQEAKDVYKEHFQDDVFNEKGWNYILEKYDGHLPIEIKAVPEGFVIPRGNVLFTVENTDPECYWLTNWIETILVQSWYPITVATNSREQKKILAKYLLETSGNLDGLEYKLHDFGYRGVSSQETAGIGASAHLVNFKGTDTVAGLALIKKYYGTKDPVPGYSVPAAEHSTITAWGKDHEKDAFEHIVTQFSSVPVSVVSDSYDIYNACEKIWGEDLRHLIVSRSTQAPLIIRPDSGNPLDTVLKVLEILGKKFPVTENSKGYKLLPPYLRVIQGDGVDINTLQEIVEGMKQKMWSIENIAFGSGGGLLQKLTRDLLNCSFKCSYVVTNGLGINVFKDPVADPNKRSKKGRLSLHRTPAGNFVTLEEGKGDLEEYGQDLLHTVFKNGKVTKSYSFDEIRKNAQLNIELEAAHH

`Cc1ncsc1C(=O)N1CCC(CCCCNC(=O)c2cc3cnccc3[nH]2)CC1` [N-(4-{1-[(4-methyl-1,3-thiazol-5-yl)carbonyl]piperidin-4-yl}butyl)-1H-pyrrolo[3,2-c]pyridine-2-carboxamide] was tested, and the IC50 ([1]; […] ATP) was 5.4 nM and the IC50 (A2780 cells; Homo sapiens) was 1 nM.
In the case of `O=C(NCCCCC1CCN(C(=O)c2ccc(OC(F)F)cc2)CC1)c1ccc2nccn2c1` [N-[4-(1-{[4-(difluoromethoxy)phenyl]carbonyl}piperidin-4-yl)butyl]imidazo[1,2-a]pyridine-6-carboxamide], the IC50 ([1]; 2.5 mM ATP) is reported as 42.7 nM and the IC50 (A2780 cells; Homo sapiens) is reported as 101 nM.
`O=C(NCCCCC1CCN(C(=O)c2ccc(F)c(F)c2)CC1)c1cc2cnccc2[nH]1` [N-(4-{1-[(3,4-difluorophenyl)carbonyl]piperidin-4-yl}butyl)-1H-pyrrolo[3,2-c]pyridine-2-carboxamide] showed an IC50 ([1]; 2.5 mM ATP) of 56 nM and an IC50 (A2780 cells; Homo sapiens) of 20.6 nM.
In the case of `COc1ccc(Cl)cc1C(=O)N1CCC(CCCCNC(=O)c2ccc3nccn3c2)CC1` [N-(4-{1-[(5-chloro-2-methoxyphenyl)carbonyl]piperidin-4-yl}butyl)imidazo[1,2-a]pyridine-6-carboxamide], the IC50 ([1]; 2.5 mM ATP) is reported as 10.5 nM and the IC50 (A2780 cells; Homo sapiens) is reported as 3.1 nM.
For `Cc1c(F)cccc1C(=O)N1CCC(CCCCNC(=O)c2cc3ccncc3s2)CC1` [N-(4-{1-[(3-fluoro-2-methylphenyl)carbonyl]piperidin-4-yl}butyl)thieno[2,3-c]pyridine-2-carboxamide], the IC50 ([1]; 2.5 mM ATP) was 6.8 nM and the IC50 (A2780 cells; Homo sapiens) was 3.2 nM.
`O=C(NCCCCCCOc1ccc(Cl)cc1)c1ccc2ncccc2c1` [N-[6-(4-chlorophenoxy)hexyl]quinoline-6-carboxamide] showed an IC50 ([1]; 2.5 mM ATP) of 25.9 nM and an IC50 (A2780 cells; Homo sapiens) of 9890 nM.
Molecule `CSc1ncccc1C(=O)N1CCC(CCCCNC(=O)c2cc3ccncc3s2)CC1` [N-[4-(1-{[2-(methylsulfanyl)pyridin-3-yl]carbonyl}piperidin-4-yl)butyl]thieno[2,3-c]pyridine-2-carboxamide] has an IC50 ([1]; 2.5 mM ATP) of 10.1 nM and an IC50 (A2780 cells; Homo sapiens) of 1.4 nM.
For `CC(C)c1ccc(C(=O)N2CCC(CCCCNC(=O)c3ccc4nccn4c3)CC2)cn1` [N-[4-(1-{[6-(propan-2-yl)pyridin-3-yl]carbonyl}piperidin-4-yl)butyl]imidazo[1,2-a]pyridine-6-carboxamide], the IC50 ([1]; 2.5 mM ATP) was 38.7 nM and the IC50 (A2780 cells; Homo sapiens) was 26.1 nM.
`CC(C)c1ccc(C(=O)N2CCC(CCCCNC(=O)c3cc4ccncc4s3)CC2)cn1` [N-[4-(1-{[6-(propan-2-yl)pyridin-3-yl]carbonyl}piperidin-4-yl)butyl]thieno[2,3-c]pyridine-2-carboxamide] was tested, and the IC50 ([1]; 2.5 mM ATP) was 138 nM and the IC50 (A2780 cells; Homo sapiens) was 100 to 1000 nM.
`O=C(NCCCCC1CCN(C(=O)c2ccc(Cl)cc2Cl)CC1)c1cc2cnccc2[nH]1` [N-(4-{1-[(2,4-dichlorophenyl)carbonyl]piperidin-4-yl}butyl)-1H-pyrrolo[3,2-c]pyridine-2-carboxamide] showed an IC50 ([1]; 2.5 mM ATP) of 70 nM and an IC50 (A2780 cells; Homo sapiens) of 12 nM.
`O=C(NCCCCC1CCN(C(=O)c2ccc(C(F)(F)F)cc2)CC1)c1cc2cnccc2[nH]1` [N-[4-(1-{[4-(trifluoromethyl)phenyl]carbonyl}piperidin-4-yl)butyl]-1H-pyrrolo[3,2-c]pyridine-2-carboxamide] gave an IC50 ([1]; 2.5 mM ATP) of 164 nM and an IC50 (A2780 cells; Homo sapiens) of 38.1 nM.
`O=C(NCCCCC1CCN(C(=O)c2ccc(Cl)c(Cl)c2)CC1)c1cc2cnccc2[nH]1` [N-(4-{1-[(3,4-dichlorophenyl)carbonyl]piperidin-4-yl}butyl)-1H-pyrrolo[3,2-c]pyridine-2-carboxamide] gave an IC50 ([1]; 2.5 mM ATP) of 93 nM and an IC50 (A2780 cells; Homo sapiens) of 58 nM.
Molecule `O=C(NCCCCC1CCN(C(=O)c2cc3ccccc3[nH]2)CC1)c1cc2ccncc2s1` [N-(4-{1-[(1H-indol-2-yl)carbonyl]piperidin-4-yl}butyl)thieno[2,3-c]pyridine-2-carboxamide] has an IC50 ([1]; 2.5 mM ATP) of 33.5 nM and an IC50 (A2780 cells; Homo sapiens) of 100 to 1000 nM.
Work on `O=C(NCCCOC1CCN(C(=O)c2ccccc2F)CC1)c1cc2cnccc2[nH]1` [N-(3-((1-(2-fluorobenzoyl)piperidin-4-yl)oxy)propyl)-1H-pyrrolo[3,2-c]pyridine-2-carboxamide] yielded an IC50 ([1]; 2.5 mM ATP) of 35 nM and an IC50 (A2780 cells; Homo sapiens) of 177 nM.
With `O=C(NCCCCC1CCN(C(=O)c2cc(Cl)cc(Cl)c2)CC1)c1cc2ccncc2s1` [N-(4-{1-[(3,5-dichlorophenyl)carbonyl]piperidin-4-yl}butyl)thieno[2,3-c]pyridine-2-carboxamide] the IC50 ([1]; 2.5 mM ATP) was 30 nM and the IC50 (A2780 cells; Homo sapiens) was 51.3 nM.
For `O=C(NCCCCC1CCN(S(=O)(=O)c2ccccc2)CC1)c1cc2cnccc2[nH]1` [N-{4-[1-(benzenesulfonyl)piperidin-4-yl]butyl}-1H-pyrrolo[3,2-c]pyridine-2-carboxamide], the IC50 ([1]; 2.5 mM ATP) was 24.9 nM and the IC50 (A2780 cells; Homo sapiens) was 6.7 nM.
For `O=C(NCCCCC1CCN(C(=O)c2cccc(F)c2F)CC1)c1ccc2nccn2c1` [N-(4-{1-[(2,3-difluorophenyl)carbonyl]piperidin-4-yl}butyl)imidazo[1,2-a]pyridine-6-carboxamide], the IC50 ([1]; 2.5 mM ATP) was 7.9 nM and the IC50 (A2780 cells; Homo sapiens) was 10.1 nM.
`O=C(NCCCCC1CCN(S(=O)(=O)c2ccc(C(F)(F)F)cc2)CC1)c1cc2cnccc2[nH]1` [N-[4-(1-{[4-(trifluoromethyl)benzene]sulfonyl}piperidin-4-yl)butyl]-1H-pyrrolo[3,2-c]pyridine-2-carboxamide] showed an IC50 ([1]; 2.5 mM ATP) of 74.8 nM and an IC50 (A2780 cells; Homo sapiens) of 23.3 nM.
For `O=C(NCCCCC1CCN(S(=O)(=O)c2ccccc2OC(F)(F)F)CC1)c1cc2cnccc2[nH]1` [N-[4-(1-{[2-(trifluoromethoxy)benzene]sulfonyl}piperidin-4-yl)butyl]-1H-pyrrolo[3,2-c]pyridine-2-carboxamide], the IC50 ([1]; […] ATP) was 22.6 nM and the IC50 (A2780 cells) was 3.3 nM.
In the case of `O=C(NCCCCC1CCN(C(=O)c2ccc(F)c(F)c2)CC1)c1cc2ccncc2s1` [N-(4-{1-[(3,4-difluorophenyl)carbonyl]piperidin-4-yl}butyl)thieno[2,3-c]pyridine-2-carboxamide], the IC50 ([1]; 2.5 mM ATP) is reported as 22.9 nM and the IC50 (A2780 cells; Homo sapiens) is reported as 100 to 1000 nM.
`O=C(NCCCCC1CCN(C(=O)c2cccnc2)CC1)c1cc2cnccc2[nH]1` [N-(4-{1-[(pyridin-3-yl)carbonyl]piperidin-4-yl}butyl)-1H-pyrrolo[3,2-c]pyridine-2-carboxamide] gave an IC50 ([1]; 2.5 mM ATP) of 98.6 nM and an IC50 (A2780 cells; Homo sapiens) of 23.1 nM.
`O=C(NCCCCC1CCN(C(=O)c2ccc(F)cn2)CC1)c1cc2ccncc2s1` [N-(4-{1-[(5-fluoropyridin-2-yl)carbonyl]piperidin-4-yl}butyl)thieno[2,3-c]pyridine-2-carboxamide] was tested, and the IC50 ([1]; 2.5 mM ATP) was 26.5 nM and the IC50 (A2780 cells; Homo sapiens) was 100 to 1000 nM.
For `O=C(NCCCCC1CCN(C(=O)c2ccc3c(c2)OCO3)CC1)c1ccc2nccn2c1` [N-(4-{1-[(2H-1,3-benzodioxol-5-yl)carbonyl]piperidin-4-yl}butyl)imidazo[1,2-a]pyridine-6-carboxamide], the IC50 ([1]; 2.5 mM ATP) was 21.3 nM and the IC50 (A2780 cells; Homo sapiens) was 29.2 nM.
`O=C(NCCCCC1CCN(C(=O)C2CCCCC2)CC1)c1cc2ccncc2s1` [N-[4-(1-cyclohexanecarbonylpiperidin-4-yl)butyl]thieno[2,3-c]pyridine-2-carboxamide] gave an IC50 ([1]; 2.5 mM ATP) of 77.9 nM and an IC50 (A2780 cells; Homo sapiens) of 72.7 nM.
`Cn1c(C(=O)N2CCC(CCCCNC(=O)c3cc4cnccc4[nH]3)CC2)cc2ccccc21` [N-(4-{1-[(1-methyl-1H-indol-2-yl)carbonyl]piperidin-4-yl}butyl)-1H-pyrrolo[3,2-c]pyridine-2-carboxamide] gave an IC50 ([1]; 2.5 mM ATP) of 134 nM and an IC50 (A2780 cells; Homo sapiens) of 23.8 nM.
In the case of `O=C(NCCCCC1CCN(C(=O)c2csc(-c3ccccc3)n2)CC1)c1cc2cnccc2[nH]1` [N-(4-{1-[(2-phenyl-1,3-thiazol-4-yl)carbonyl]piperidin-4-yl}butyl)-1H-pyrrolo[3,2-c]pyridine-2-carboxamide], the IC50 ([1]; 2.5 mM ATP) is reported as 110 nM and the IC50 (A2780 cells; Homo sapiens) is reported as 72.5 nM.
Work on `CC(C)c1ccc(C(=O)N2CCC(CCCCNC(=O)c3cc4ccncc4s3)CC2)nc1` [N-[4-(1-{[5-(propan-2-yl)pyridin-2-yl]carbonyl}piperidin-4-yl)butyl]thieno[2,3-c]pyridine-2-carboxamide] yielded an IC50 ([1]; 2.5 mM ATP) of 89.8 nM and an IC50 (A2780 cells; Homo sapiens) of 100 to 1000 nM.
`Cc1c(F)cccc1C(=O)N1CCC(CCCCNC(=O)c2ccc3nccn3c2)CC1` [N-(4-{1-[(3-fluoro-2-methylphenyl)carbonyl]piperidin-4-yl}butyl)imidazo[1,2-a]pyridine-6-carboxamide] gave an IC50 ([1]; 2.5 mM ATP) of 13.1 nM and an IC50 (A2780 cells; Homo sapiens) of 3.5 nM.
`O=C(NCCCCC1CCN(C(=O)c2cc3ccccc3s2)CC1)c1ccc2nccn2c1` [N-(4-{1-[(1-benzothiophen-2-yl)carbonyl]piperidin-4-yl}butyl)imidazo[1,2-a]pyridine-6-carboxamide] showed an IC50 ([1]; 2.5 mM ATP) of 25.8 nM and an IC50 (A2780 cells; Homo sapiens) of 71.8 nM.
Work on `Cn1ccnc1C(=O)N1CCC(CCCCNC(=O)c2cc3cnccc3[nH]2)CC1` [N-(4-{1-[(1-methyl-1H-imidazol-2-yl)carbonyl]piperidin-4-yl}butyl)-1H-pyrrolo[3,2-c]pyridine-2-carboxamide] yielded an IC50 ([1]; 2.5 mM ATP) of 76.5 nM and an IC50 (A2780 cells; Homo sapiens) of 23.6 nM.
In the case of `O=C(NCCCCC1CCN(C(=O)c2cc(Cl)ccc2Cl)CC1)c1cc2cnccc2[nH]1` [N-(4-{1-[(2,5-dichlorophenyl)carbonyl]piperidin-4-yl}butyl)-1H-pyrrolo[3,2-c]pyridine-2-carboxamide], the IC50 ([1]; 2.5 mM ATP) is reported as 51.3 nM and the IC50 (A2780 cells; Homo sapiens) is reported as 6.1 nM.
In the case of `CC(=O)N1CCC(C(=O)N2CCC(CCCCNC(=O)c3cc4cnccc4[nH]3)CC2)CC1` [N-(4-{1-[(1-acetylpiperidin-4-yl)carbonyl]piperidin-4-yl}butyl)-1H-pyrrolo[3,2-c]pyridine-2-carboxamide], the IC50 ([1]; 2.5 mM ATP) is reported as 134 nM and the IC50 (A2780 cells; Homo sapiens) is reported as 23.9 nM.
Work on `O=C(NCCCCC1CCN(C(=O)C2CCCCC2)CC1)c1cc2cnccc2[nH]1` [N-[4-(1-cyclohexanecarbonylpiperidin-4-yl)butyl]-1H-pyrrolo[3,2-c]pyridine-2-carboxamide] yielded an IC50 ([1]; 2.5 mM ATP) of 180 nM and an IC50 (A2780 cells; Homo sapiens) of 15.5 nM.
Molecule `O=C(NCCCCC1CCN(C(=O)c2ccc(N3CCOCC3)nc2)CC1)c1cc2cnccc2[nH]1` [N-[4-(1-{[6-(morpholin-4-yl)pyridin-3-yl]carbonyl}piperidin-4-yl)butyl]-1H-pyrrolo[3,2-c]pyridine-2-carboxamide] has an IC50 ([1]; 2.5 mM ATP) of 64.7 nM and an IC50 (A2780 cells; Homo sapiens) of 3.4 nM.

— US9555039B2, “Piperidine derivatives and compositions for the inhibition of nicotinamide phosphoribosyltransferase (NAMPT)” (Forma TM, LLC., priority 2011, dated 2017)
